Data taken from patent US4459290A, “C-23-Modified derivatives of OMT, pharmaceutical compositions and method of use” (priority 1982, dated 1984).
In brackets after ≈: the same amount, converted by molar mass.

Legend:
[1] = system: Streptococcus pneumoniae Park I; experiment: microbe, parasite or virus in culture; assay type: cell-based; conditions: Streptococcus pneumoniae; S. pneumoniae Park I; agar dilution; read-out: MIC
Description: (§1) Especially noteworthy is the improved activity against gram-negative bacteria for several derivatives when compared to the activity of OMT. […] The MIC's in Tables V and VI were determined by standard agar-dilution assays. The MIC's in Table VII were obtained using a conventional broth-dilution microtiter test.

[2] = system: Haemophilus influenzae R252; experiment: MIC, standard agar-dilution assay (Table V); assay type: cell-based; conditions: Haemophilus influenzae, R252
Description: (§2) The MIC's in Tables V and VI were determined by standard agar-dilution assays. The MIC's in Table VII were obtained using a conventional broth-dilution microtiter test.

[3] = system: Haemophilus influenzae Holt; experiment: MIC, standard agar-dilution assay (Table V); assay type: cell-based; conditions: Haemophilus influenzae
Description: as §2

[4] = system: Streptococcus pyogenes C203; experiment: MIC, standard agar-dilution assay (Table V); assay type: cell-based; conditions: Streptococcus pyogenes; S. pyogenes C203; agar dilution; read-out: MIC
Description: as §2

Escherichia coli TEM = experiment: MIC, standard agar-dilution assay (Table V); assay type: cell-based; conditions: Escherichia coli
Description: as §2

Escherichia coli N10 = experiment: MIC, standard agar-dilution assay (Table V); assay type: cell-based; conditions: Escherichia coli, N10
Description: as §1

[5] = system: Streptococcus Group D X66; experiment: MIC, standard agar-dilution assay (Table V); assay type: cell-based; conditions: Streptococcus Group D X66; agar dilution; read-out: MIC
Description: as §1

[6] = system: Staphylococcus aureus X1.1; experiment: MIC, standard agar-dilution assay (Table V); assay type: cell-based; conditions: Staphylococcus aureus, X1.1
Description: as §1

[7] = system: Staphylococcus aureus S13E; experiment: MIC, standard agar-dilution assay (Table V); assay type: cell-based; conditions: Staphylococcus aureus, S13E
Description: as §1

[8] = system: Staphylococcus aureus V41; experiment: MIC, standard agar-dilution assay (Table V); assay type: cell-based; conditions: Staphylococcus aureus, V41
Description: as §1

Escherichia coli EC14 = experiment: MIC, standard agar-dilution assay (Table V); assay type: cell-based; conditions: Escherichia coli, EC14
Description: as §1

[9] = system: Klebsiella pneumoniae X26; experiment: MIC, standard agar-dilution assay (Table V); assay type: cell-based; conditions: Klebsiella pneumoniae; K. pneumoniae X26; agar dilution; read-out: MIC
Description: as §1

Shigella sonnei N9 = experiment: MIC, standard agar-dilution assay (Table V); assay type: cell-based
Description: as §1

[10] = system: Staphylococcus epidermidis EPI1; experiment: MIC, standard agar-dilution assay (Table V); assay type: cell-based; conditions: Staphylococcus epidermidis; S. epidermidis EPI1; agar dilution; read-out: MIC
Description: as §1

[11] = system: Staphylococcus epidermidis EPI2; experiment: MIC, standard agar-dilution assay (Table V); assay type: cell-based; conditions: Staphylococcus epidermidis; S. epidermidis EPI2; agar dilution; read-out: MIC
Description: as §1

[12] = system: Klebsiella pneumoniae KAE; experiment: MIC, standard agar-dilution assay (Table V); assay type: cell-based; conditions: Klebsiella pneumoniae
Description: as §1

Streptococcus Group 9960 = experiment: MIC, standard agar-dilution assay (Table V); assay type: cell-based; conditions: GROUP9960; Streptococcus Group 9960; agar dilution; read-out: MIC
Description: as §1

[13] = system: Staphylococcus aureus X400; experiment: MIC, standard agar-dilution assay (Table V); assay type: cell-based; conditions: Staphylococcus aureus; S. aureus X400, methicillin-resistant strain; agar dilution; read-out: MIC
Description: as §1

Pasteurella multocida = experiment: Protection of one-day-old chicks against Pasteurella multocida infection (Table IX); assay type: in vivo; conditions: subcutaneous 30 mg/kg × 2, 1 and 4 hours post-challenge
Description: The C-23 modified derivatives of OMT have also shown in vivo antibacterial activity against infections induced by gram-negative bacteria. Table IX summarizes the results of tests in which illustrative compounds were evaluated against Pasteurella infections in one-day-old chicks. The compounds were administered by subcutaneous injection at a dosage of 30 mg/kg, 1 and 4 hours post-challenge of the chicks with Pasteurella multocida (0.1 ml of a twenty-hour tryptose broth culture of an avian P. multocida given subcutaneously). In the tests, all ten non-medicated infected chicks died within 24 hours of Pasteurella challenge.

Mycoplasma gallisepticum = experiment: MIC, broth-dilution microtiter test (Table VII); assay type: cell-based; conditions: Mycoplasmoides gallisepticum; M. gallisepticum; broth-dilution microtiter; read-out: MIC
Description: as §1

[14] = system: Pasteurella multocida 40G; experiment: MIC, broth-dilution microtiter test (Table VII); assay type: cell-based; conditions: Pasteurella multocida; P. multocida 40G; broth-dilution microtiter; read-out: MIC
Description: as §1

Streptococcus sp. 80 = experiment: MIC, broth-dilution microtiter test (Table VII); assay type: cell-based; conditions: Streptococcus sp. 80; broth-dilution microtiter; read-out: MIC
Description: as §1

[15] = system: Pasteurella hemolytica 22C; experiment: MIC, broth-dilution microtiter test (Table VII); assay type: cell-based; conditions: Pasteurella, P. hemolytica 22C, read-out: MIC
Description: as §1

[16] = system: Pasteurella hemolytica 41D; experiment: MIC, broth-dilution microtiter test (Table VII); assay type: cell-based; conditions: Pasteurella, P. hemolytica 41D, read-out: MIC
Description: as §1

[17] = system: Pasteurella hemolytica 23C; experiment: MIC, broth-dilution microtiter test (Table VII); assay type: cell-based; conditions: Pasteurella, P. hemolytica 23C, read-out: MIC
Description: as §1

[18] = system: Pasteurella multocida 17E; experiment: MIC, broth-dilution microtiter test (Table VII); assay type: cell-based; conditions: Pasteurella multocida; P. multocida 17E, bovine isolate; broth-dilution microtiter; read-out: MIC
Description: as §1

Mycoplasma synoviae = experiment: MIC, broth-dilution microtiter test (Table VII); assay type: cell-based; conditions: Mycoplasmopsis synoviae; M. synoviae; broth-dilution microtiter; read-out: MIC
Description: as §1

[19] = system: Pasteurella multocida 22A; experiment: MIC, broth-dilution microtiter test (Table VII); assay type: cell-based; conditions: Pasteurella multocida; P. multocida 22A; broth-dilution microtiter; read-out: MIC
Description: as §1

[20] = system: Pasteurella multocida 60A; experiment: MIC, broth-dilution microtiter test (Table VII); assay type: cell-based; conditions: Pasteurella multocida; P. multocida 60A, avian isolate; broth-dilution microtiter; read-out: MIC
Description: as §1

Mycoplasma hyorhinis = experiment: MIC, broth-dilution microtiter test (Table VII); assay type: cell-based; conditions: M. hyorhinis; broth-dilution microtiter; read-out: MIC
Description: as §1

[21] = system: Pasteurella multocida 68C; experiment: MIC, broth-dilution microtiter test (Table VII); assay type: cell-based; conditions: Pasteurella multocida; P. multocida 68C; broth-dilution microtiter; read-out: MIC
Description: as §1

Staphylococcus aureus = experiment: MIC, broth-dilution microtiter test (Table VII); assay type: cell-based; conditions: Staphylococcus aureus; S. aureus; broth-dilution microtiter; read-out: MIC
Description: as §1

CCC1OC(=O)CC(O)C(C)C(OC2OC(C)C(O)C(N(C)C)C2O)C(CC=O)CC(C)C(=O)C=CC(C)=CC1CNC(=O)[C@H](NC(=O)OC(C)(C)C)c1ccccc1 (single isomer, unassigned) [Compound 11, 23-Deoxy-23-[(D)-(-)-(N-t-BOC-phenylglycyl)amino]-OMT]
MIC [1]: 0.25 µg/mL (≈ 0.301 µM)
MIC [2]: 8 µg/mL (≈ 9.64 µM)
MIC [3]: 8 µg/mL (≈ 9.64 µM)
MIC [4]: 0.5 µg/mL (≈ 0.602 µM)
MIC (Escherichia coli TEM): > 128 µg/mL
MIC (Escherichia coli N10): > 128 µg/mL
MIC [5]: 2 µg/mL (≈ 2.41 µM)
MIC [6]: 1 µg/mL (≈ 1.2 µM)
MIC [7]: 2 µg/mL (≈ 2.41 µM)
MIC [8]: 2 µg/mL (≈ 2.41 µM)
MIC (Escherichia coli EC14): > 128 µg/mL
MIC [9]: 16 µg/mL (≈ 19.3 µM)
MIC (Shigella sonnei N9): > 128 µg/mL
MIC [10]: 1 µg/mL (≈ 1.2 µM)
MIC [11]: 4 µg/mL (≈ 4.82 µM)
MIC [12]: > 128 µg/mL
MIC (Streptococcus Group 9960): 2 µg/mL (≈ 2.41 µM)
MIC [13]: 4 µg/mL (≈ 4.82 µM)
Number of deaths/number treated (Pasteurella multocida): 10/10
MIC (Mycoplasma gallisepticum): 0.78 µg/mL (≈ 0.94 µM)
MIC [14]: 12.5 µg/mL (≈ 15.1 µM)
MIC (Streptococcus sp. 80): 0.78 µg/mL (≈ 0.94 µM)
MIC [15]: 25 µg/mL (≈ 30.1 µM)
MIC [16]: 50 µg/mL (≈ 60.2 µM)
MIC [17]: 25 µg/mL (≈ 30.1 µM)
MIC [18]: 6.25 µg/mL (≈ 7.53 µM)
MIC (Mycoplasma synoviae): 0.78 µg/mL (≈ 0.94 µM)
MIC [19]: 12.5 µg/mL (≈ 15.1 µM)
MIC [20]: 12.5 µg/mL (≈ 15.1 µM)
MIC (Mycoplasma hyorhinis): > 50 µg/mL
MIC [21]: 6.25 µg/mL (≈ 7.53 µM)
MIC (Staphylococcus aureus): 3.12 µg/mL (≈ 3.76 µM)
